{
  "source": "PubChem BioAssay AID1259407",
  "about": "(Chemical Carcinogenesis Research Information System (CCRIS), 2018)",
  "tested_on": "CCRIS mutagenicity, Ames/micronucleus/aberration tests",
  "experiment": "CCRIS mutagenicity studies",
  "key": {"[1]": {"conditions": "Test System: AMES SALMONELLA TYPHIMURIUM, Strain/Indicator: TA1535, Metabolic Activation: NONE, Method: STANDARD PLATE"}, "[2]": {"conditions": "Test System: AMES SALMONELLA TYPHIMURIUM, Strain/Indicator: TA98, Metabolic Activation: NONE, Method: STANDARD PLATE"}, "[3]": {"conditions": "Test System: AMES SALMONELLA TYPHIMURIUM, Strain/Indicator: TA98, Metabolic Activation: RAT, LIVER, S-9, AROCLOR 1254, Method: STANDARD PLATE"}, "[4]": {"conditions": "Test System: AMES SALMONELLA TYPHIMURIUM, Strain/Indicator: TA100, Metabolic Activation: NONE, Method: STANDARD PLATE"}, "[5]": {"conditions": "Test System: AMES SALMONELLA TYPHIMURIUM, Strain/Indicator: TA100, Metabolic Activation: RAT, LIVER, S-9, AROCLOR 1254, Method: STANDARD PLATE"}, "[6]": {"conditions": "Test System: AMES SALMONELLA TYPHIMURIUM, Strain/Indicator: TA98, Metabolic Activation: NONE, Method: PREINCUBATION"}, "[7]": {"conditions": "Test System: AMES SALMONELLA TYPHIMURIUM, Strain/Indicator: TA100, Metabolic Activation: NONE, Method: PREINCUBATION"}},
  "note": "Calls of active or inactive are those of the source. No rule for the calls is given here.",
  "data": [
    {"smiles": "CN(Cc1ccc(C(=O)O)cc1)N=O", "values": [
      {"measurement": "mutagenic call", "setting": "Test System: AMES SALMONELLA TYPHIMURIUM, Strain/Indicator: TA1535, Metabolic Activation: HAMSTER, LIVER, S-9, AROCLOR 1254, Method: STANDARD PLATE", "result": "inactive; negative"},
      {"measurement": "mutagenic call", "setting": "[1]", "result": "inactive; negative"}
    ]},
    {"smiles": "O=C(COc1cc(Cl)c(Cl)cc1Cl)N[C@@H](Cc1c[nH]c2ccccc12)C(=O)O", "values": [
      {"measurement": "mutagenic call", "setting": "Test System: AMES SALMONELLA TYPHIMURIUM, Strain/Indicator: TA97, Metabolic Activation: NONE, Method: STANDARD PLATE", "result": "inactive; negative"},
      {"measurement": "mutagenic call", "setting": "Test System: AMES SALMONELLA TYPHIMURIUM, Strain/Indicator: TA97, Metabolic Activation: RAT, LIVER, S-9, AROCLOR 1254, Method: STANDARD PLATE", "result": "inactive; negative"},
      {"measurement": "mutagenic call", "setting": "[2]", "result": "inactive; negative"},
      {"measurement": "mutagenic call", "setting": "[3]", "result": "inactive; negative"},
      {"measurement": "mutagenic call", "setting": "[4]", "result": "inactive; negative"},
      {"measurement": "mutagenic call", "setting": "[5]", "result": "inactive; negative"},
      {"measurement": "mutagenic call", "setting": "[1]", "result": "inactive; negative"},
      {"measurement": "mutagenic call", "setting": "Test System: AMES SALMONELLA TYPHIMURIUM, Strain/Indicator: TA1535, Metabolic Activation: RAT, LIVER, S-9, AROCLOR 1254, Method: STANDARD PLATE", "result": "inactive; negative"},
      {"measurement": "mutagenic call", "setting": "Test System: AMES SALMONELLA TYPHIMURIUM, Strain/Indicator: TA1538, Metabolic Activation: NONE, Method: STANDARD PLATE", "result": "inactive; negative"},
      {"measurement": "mutagenic call", "setting": "Test System: AMES SALMONELLA TYPHIMURIUM, Strain/Indicator: TA1538, Metabolic Activation: RAT, LIVER, S-9, AROCLOR 1254, Method: STANDARD PLATE", "result": "inactive; negative"}
    ]},
    {"smiles": "O=Cc1cccc(Cl)c1Cl", "values": [
      {"measurement": "mutagenic call", "setting": "[6]", "result": "inactive; negative"},
      {"measurement": "mutagenic call", "setting": "Test System: AMES SALMONELLA TYPHIMURIUM, Strain/Indicator: TA98, Metabolic Activation: RAT LIVER S-9, PCB, Method: PREINCUBATION", "result": "inactive; negative"},
      {"measurement": "mutagenic call", "setting": "[7]", "result": "inactive; negative"},
      {"measurement": "mutagenic call", "setting": "Test System: AMES SALMONELLA TYPHIMURIUM, Strain/Indicator: TA100, Metabolic Activation: RAT LIVER S-9, PCB, Method: PREINCUBATION", "result": "inactive; negative"},
      {"measurement": "mutagenic call", "setting": "Test System: AMES SALMONELLA TYPHIMURIUM, Strain/Indicator: TA104, Metabolic Activation: NONE, Method: PREINCUBATION", "result": "inactive; negative"},
      {"measurement": "mutagenic call", "setting": "Test System: AMES SALMONELLA TYPHIMURIUM, Strain/Indicator: TA104, Metabolic Activation: RAT LIVER S-9, PCB, Method: PREINCUBATION", "result": "inactive; negative"},
      {"measurement": "mutagenic call", "setting": "Test System: E.COLI, Strain/Indicator: WP2 UVRA, Metabolic Activation: NONE, Method: PREINCUBATION", "result": "inactive; negative"},
      {"measurement": "mutagenic call", "setting": "Test System: E.COLI, Strain/Indicator: WP2 UVRA, Metabolic Activation: RAT LIVER S-9, PCB, Method: PREINCUBATION", "result": "inactive; negative"}
    ]},
    {"smiles": "Cn1cnc2ccc([N+](=O)[O-])cc21", "values": [
      {"measurement": "mutagenic call", "setting": "[2]", "result": "active; positive"}
    ]},
    {"smiles": "NNc1nncc2ncccc12", "values": [
      {"measurement": "mutagenic call", "setting": "[6]", "result": "active; positive"},
      {"measurement": "mutagenic call", "setting": "Test System: AMES SALMONELLA TYPHIMURIUM, Strain/Indicator: TA98, Metabolic Activation: RAT, LIVER, S-9, PCB, Method: PREINCUBATION", "result": "active; positive"},
      {"measurement": "mutagenic call", "setting": "[7]", "result": "active; positive"},
      {"measurement": "mutagenic call", "setting": "Test System: AMES SALMONELLA TYPHIMURIUM, Strain/Indicator: TA100, Metabolic Activation: RAT, LIVER, S-9, PCB, Method: PREINCUBATION", "result": "active; positive"}
    ]},
    {"smiles": "ClCC(Cl)CBr", "note": "(stereo not drawn)", "values": [
      {"measurement": "mutagenic call", "setting": "Test System: AMES SALMONELLA TYPHIMURIUM, Strain/Indicator: TA100, Metabolic Activation: RAT, LIVER, MICROSOMES, PHENOBARBITAL, NADPH COFACTORS, Method: STANDARD PLATE", "result": "active; positive"},
      {"measurement": "mutagenic call", "setting": "Test System: AMES SALMONELLA TYPHIMURIUM, Strain/Indicator: TA100, Metabolic Activation: RAT, LIVER, MICROSOMES, PHENOBARBITAL, Method: STANDARD PLATE", "result": "inactive; negative"}
    ]},
    {"smiles": "Cc1ccccc1-c1ccc(N)cc1", "values": [
      {"measurement": "mutagenic call", "setting": "[2]", "result": "inactive; negative"},
      {"measurement": "mutagenic call", "setting": "[3]", "result": "active; positive"},
      {"measurement": "mutagenic call", "setting": "[4]", "result": "inactive; negative"},
      {"measurement": "mutagenic call", "setting": "[5]", "result": "active; positive"}
    ]},
    {"smiles": "CC12CCC(CC1=O)C2(C)C", "note": "(stereo not drawn) (tested in a mixture with another compound)", "values": [
      {"measurement": "mutagenic call", "setting": "End Point: IN VITRO CHROMOSOMAL ABERRATIONS, Test System: SYRIAN HAMSTER EMBRYO (SHE) CELLS, Metabolic Activation: NONE", "result": "active; positive (structural changes)"},
      {"measurement": "mutagenic call", "setting": "End Point: In vitro chromosomal aberrations, Test System: D824 human dental pulp cells, Metabolic Activation: Rat, Liver, Postmitochondrial supernate (5%)", "result": "inactive; negative"}
    ]}
  ]
}
